# From the CheMixHub viscosity set
# ± gives the uncertainty stated by the source.
# Assay: xn = mol fraction of the nth substance listed
# [1] = 298.15 K, 101.33 kPa, x1 = 0.8984
# [2] = 303.15 K, 101.33 kPa, x1 = 0.8984
# [3] = 308.15 K, 101.33 kPa, x1 = 0.8984
# [4] = 313.15 K, 101.33 kPa, x1 = 0.8984
smiles,measurement,setting,value
CCOCCO + CCCCCCCCCC,viscosity,"298.15 K, 101.33 kPa, x1 = 0.0958",0.828 ± 0.021 mPa·s
same,viscosity,"298.15 K, 101.33 kPa, x1 = 0.2018",0.851 ± 0.022 mPa·s
same,viscosity,"298.15 K, 101.33 kPa, x1 = 0.2985",0.905 ± 0.023 mPa·s
same,viscosity,"298.15 K, 101.33 kPa, x1 = 0.4011",0.962 ± 0.024 mPa·s
same,viscosity,"298.15 K, 101.33 kPa, x1 = 0.4984",1.046 ± 0.026 mPa·s
same,viscosity,"298.15 K, 101.33 kPa, x1 = 0.5978",1.128 ± 0.028 mPa·s
same,viscosity,"298.15 K, 101.33 kPa, x1 = 0.6989",1.223 ± 0.03 mPa·s
same,viscosity,"298.15 K, 101.33 kPa, x1 = 0.7994",1.345 ± 0.032 mPa·s
same,viscosity,[1],1.512 ± 0.036 mPa·s
same,viscosity,"303.15 K, 101.33 kPa, x1 = 0.0958",0.767 ± 0.02 mPa·s
same,viscosity,"303.15 K, 101.33 kPa, x1 = 0.2018",0.785 ± 0.02 mPa·s
same,viscosity,"303.15 K, 101.33 kPa, x1 = 0.2985",0.827 ± 0.021 mPa·s
same,viscosity,"303.15 K, 101.33 kPa, x1 = 0.4011",0.879 ± 0.022 mPa·s
same,viscosity,"303.15 K, 101.33 kPa, x1 = 0.4984",0.946 ± 0.024 mPa·s
same,viscosity,"303.15 K, 101.33 kPa, x1 = 0.5978",1.016 ± 0.025 mPa·s
same,viscosity,"303.15 K, 101.33 kPa, x1 = 0.6989",1.108 ± 0.027 mPa·s
same,viscosity,"303.15 K, 101.33 kPa, x1 = 0.7994",1.209 ± 0.029 mPa·s
same,viscosity,[2],1.354 ± 0.032 mPa·s
same,viscosity,"308.15 K, 101.33 kPa, x1 = 0.0958",0.709 ± 0.019 mPa·s
same,viscosity,"308.15 K, 101.33 kPa, x1 = 0.2018",0.725 ± 0.019 mPa·s
same,viscosity,"308.15 K, 101.33 kPa, x1 = 0.2985",0.766 ± 0.02 mPa·s
same,viscosity,"308.15 K, 101.33 kPa, x1 = 0.4011",0.806 ± 0.021 mPa·s
same,viscosity,"308.15 K, 101.33 kPa, x1 = 0.4984",0.866 ± 0.022 mPa·s
same,viscosity,"308.15 K, 101.33 kPa, x1 = 0.5978",0.929 ± 0.023 mPa·s
same,viscosity,"308.15 K, 101.33 kPa, x1 = 0.6989",1.001 ± 0.025 mPa·s
same,viscosity,"308.15 K, 101.33 kPa, x1 = 0.7994",1.096 ± 0.027 mPa·s
same,viscosity,[3],1.223 ± 0.03 mPa·s
same,viscosity,"313.15 K, 101.33 kPa, x1 = 0.0958",0.661 ± 0.017 mPa·s
same,viscosity,"313.15 K, 101.33 kPa, x1 = 0.2018",0.681 ± 0.018 mPa·s
same,viscosity,"313.15 K, 101.33 kPa, x1 = 0.2985",0.705 ± 0.018 mPa·s
same,viscosity,"313.15 K, 101.33 kPa, x1 = 0.4011",0.744 ± 0.019 mPa·s
same,viscosity,"313.15 K, 101.33 kPa, x1 = 0.4984",0.797 ± 0.02 mPa·s
same,viscosity,"313.15 K, 101.33 kPa, x1 = 0.5978",0.844 ± 0.021 mPa·s
same,viscosity,"313.15 K, 101.33 kPa, x1 = 0.6989",0.921 ± 0.023 mPa·s
same,viscosity,"313.15 K, 101.33 kPa, x1 = 0.7994",0.992 ± 0.025 mPa·s
same,viscosity,[4],1.103 ± 0.027 mPa·s
CC12CCC(CC1=O)C2(C)C (stereo not drawn) + CCCCCCCCCC(=O)O,viscosity,"298.15 K, 101.33 kPa, x2 = 0.7",10.76 ± 1.1 mPa·s
same,viscosity,"303.15 K, 101.33 kPa, x2 = 0.7",9.184 ± 0.93 mPa·s
same,viscosity,"308.05 K, 101.33 kPa, x2 = 0.7",7.889 ± 0.8 mPa·s
same,viscosity,"313.05 K, 101.33 kPa, x2 = 0.7",6.866 ± 0.69 mPa·s
same,viscosity,"318.15 K, 101.33 kPa, x2 = 0.7",6.143 ± 0.62 mPa·s
same,viscosity,"323.05 K, 101.33 kPa, x2 = 0.7",5.9 ± 0.59 mPa·s
CCOCCO + CCCCCCCCCCCC,viscosity,"298.15 K, 101.33 kPa, x1 = 0.1001",1.288 ± 0.031 mPa·s
same,viscosity,"298.15 K, 101.33 kPa, x1 = 0.1987",1.294 ± 0.031 mPa·s
same,viscosity,"298.15 K, 101.33 kPa, x1 = 0.3009",1.321 ± 0.032 mPa·s
same,viscosity,"298.15 K, 101.33 kPa, x1 = 0.3972",1.339 ± 0.032 mPa·s
same,viscosity,"298.15 K, 101.33 kPa, x1 = 0.5014",1.379 ± 0.033 mPa·s
same,viscosity,"298.15 K, 101.33 kPa, x1 = 0.5996",1.412 ± 0.034 mPa·s
same,viscosity,"298.15 K, 101.33 kPa, x1 = 0.6933",1.453 ± 0.035 mPa·s
same,viscosity,"298.15 K, 101.33 kPa, x1 = 0.7988",1.529 ± 0.036 mPa·s
same,viscosity,[1],1.636 ± 0.039 mPa·s
same,viscosity,"303.15 K, 101.33 kPa, x1 = 0.1001",1.171 ± 0.029 mPa·s
same,viscosity,"303.15 K, 101.33 kPa, x1 = 0.1987",1.174 ± 0.029 mPa·s
same,viscosity,"303.15 K, 101.33 kPa, x1 = 0.3009",1.195 ± 0.029 mPa·s
same,viscosity,"303.15 K, 101.33 kPa, x1 = 0.3972",1.223 ± 0.03 mPa·s
same,viscosity,"303.15 K, 101.33 kPa, x1 = 0.5014",1.256 ± 0.03 mPa·s
same,viscosity,"303.15 K, 101.33 kPa, x1 = 0.5996",1.284 ± 0.031 mPa·s
same,viscosity,"303.15 K, 101.33 kPa, x1 = 0.6933",1.317 ± 0.032 mPa·s
same,viscosity,"303.15 K, 101.33 kPa, x1 = 0.7988",1.387 ± 0.033 mPa·s
same,viscosity,[2],1.465 ± 0.035 mPa·s
same,viscosity,"308.15 K, 101.33 kPa, x1 = 0.1001",1.075 ± 0.027 mPa·s
same,viscosity,"308.15 K, 101.33 kPa, x1 = 0.1987",1.076 ± 0.027 mPa·s
same,viscosity,"308.15 K, 101.33 kPa, x1 = 0.3009",1.09 ± 0.027 mPa·s
same,viscosity,"308.15 K, 101.33 kPa, x1 = 0.3972",1.115 ± 0.027 mPa·s
same,viscosity,"308.15 K, 101.33 kPa, x1 = 0.5014",1.138 ± 0.028 mPa·s
same,viscosity,"308.15 K, 101.33 kPa, x1 = 0.5996",1.166 ± 0.028 mPa·s
same,viscosity,"308.15 K, 101.33 kPa, x1 = 0.6933",1.191 ± 0.029 mPa·s
same,viscosity,"308.15 K, 101.33 kPa, x1 = 0.7988",1.254 ± 0.03 mPa·s
same,viscosity,[3],1.316 ± 0.032 mPa·s
same,viscosity,"313.15 K, 101.33 kPa, x1 = 0.1001",0.986 ± 0.025 mPa·s
same,viscosity,"313.15 K, 101.33 kPa, x1 = 0.1987",0.987 ± 0.025 mPa·s
same,viscosity,"313.15 K, 101.33 kPa, x1 = 0.3009",0.997 ± 0.025 mPa·s
same,viscosity,"313.15 K, 101.33 kPa, x1 = 0.3972",1.02 ± 0.025 mPa·s
same,viscosity,"313.15 K, 101.33 kPa, x1 = 0.5014",1.045 ± 0.026 mPa·s
same,viscosity,"313.15 K, 101.33 kPa, x1 = 0.5996",1.063 ± 0.026 mPa·s
same,viscosity,"313.15 K, 101.33 kPa, x1 = 0.6933",1.082 ± 0.027 mPa·s
same,viscosity,"313.15 K, 101.33 kPa, x1 = 0.7988",1.139 ± 0.028 mPa·s
same,viscosity,[4],1.191 ± 0.029 mPa·s
CC12CCC(CC1=O)C2(C)C (stereo not drawn) + CCCCCCCCCCO,viscosity,"298.15 K, 101.33 kPa, x2 = 0.7",12.14 ± 1.2 mPa·s
same,viscosity,"303.15 K, 101.33 kPa, x2 = 0.7",10.24 ± 1 mPa·s
same,viscosity,"308.05 K, 101.33 kPa, x2 = 0.7",8.898 ± 0.9 mPa·s
same,viscosity,"313.15 K, 101.33 kPa, x2 = 0.7",7.817 ± 0.79 mPa·s
same,viscosity,"318.05 K, 101.33 kPa, x2 = 0.7",6.806 ± 0.69 mPa·s
same,viscosity,"323.05 K, 101.33 kPa, x2 = 0.7",5.915 ± 0.6 mPa·s
CCOCCO + CCCCCCCCO,viscosity,"298.15 K, 101 kPa, x1 = 0.1384",6.062 ± 0.057 mPa·s
same,viscosity,"298.15 K, 101 kPa, x1 = 0.2654",5.061 ± 0.059 mPa·s
same,viscosity,"298.15 K, 101 kPa, x1 = 0.3825",4.268 ± 0.059 mPa·s
same,viscosity,"298.15 K, 101 kPa, x1 = 0.4907",3.649 ± 0.058 mPa·s
same,viscosity,"298.15 K, 101 kPa, x1 = 0.591",3.172 ± 0.056 mPa·s
same,viscosity,"298.15 K, 101 kPa, x1 = 0.6843",2.805 ± 0.055 mPa·s
same,viscosity,"298.15 K, 101 kPa, x1 = 0.7713",2.504 ± 0.053 mPa·s
same,viscosity,"298.15 K, 101 kPa, x1 = 0.8525",2.266 ± 0.052 mPa·s
same,viscosity,"298.15 K, 101 kPa, x1 = 0.9286",2.078 ± 0.05 mPa·s
CC(CC(C)(C)C)CP(=O)(O)CC(C)CC(C)(C)C (stereo not drawn) + CCCCCCCO,viscosity,"298.15 K, 101 kPa, x1 = 0.0091",6.029 ± 0.073 mPa·s
same,viscosity,"298.15 K, 101 kPa, x1 = 0.0166",6.297 ± 0.076 mPa·s
same,viscosity,"298.15 K, 101 kPa, x1 = 0.0189",6.395 ± 0.078 mPa·s
same,viscosity,"298.15 K, 101 kPa, x2 = 0.0832",103 ± 1.7 mPa·s
same,viscosity,"298.15 K, 101 kPa, x2 = 0.1509",92.76 ± 1.4 mPa·s
same,viscosity,"298.15 K, 101 kPa, x2 = 0.2814",72.97 ± 0.95 mPa·s
same,viscosity,"298.15 K, 101 kPa, x2 = 0.4338",51.94 ± 0.6 mPa·s
same,viscosity,"298.15 K, 101 kPa, x2 = 0.5979",33.45 ± 0.4 mPa·s
same,viscosity,"298.15 K, 101 kPa, x2 = 0.6948",24.29 ± 0.29 mPa·s
same,viscosity,"298.15 K, 101 kPa, x2 = 0.7164",22.65 ± 0.27 mPa·s
same,viscosity,"298.15 K, 101 kPa, x2 = 0.819",14.88 ± 0.18 mPa·s
same,viscosity,"298.15 K, 101 kPa, x2 = 0.83",13.87 ± 0.17 mPa·s
same,viscosity,"298.15 K, 101 kPa, x2 = 0.8984",10.18 ± 0.12 mPa·s
same,viscosity,"298.15 K, 101 kPa, x2 = 0.9056",9.875 ± 0.12 mPa·s
same,viscosity,"298.15 K, 101 kPa, x2 = 0.9596",7.316 ± 0.088 mPa·s
